Values quoted from earlier work, collected in patent US20120020948A1, “DAG-TYPE AND INDIRECT PROTEIN KINASE C ACTIVATORS AND ANTICOAGULANT FOR THE TREATMENT OF STROKE” (priority 2010, published 2012).

Key:
PKC = details: for affinity for PKC: A-ring bryologs

SMILES	affinity for PKC (PKC)	further results
CCCCCCCC(=O)OC1C(=CC(=O)OC)CC2CC(CO)OC(=O)CC(O)CCOC(CCCc3ccc(Br)cc3)CC3CCOC(C=CC(C)(C)C1(O)O2)O3 (stereo not drawn) [bryolog 5]	1.9 nM	
CCCCCCCC(=O)OC1C(=CC(=O)OC)CC2CC(CO)OC(=O)CC(O)CCOC(c3ccccc3)CC3CCOC(C=CC(C)(C)C1(O)O2)O3 (stereo not drawn) [bryolog 4]	2.3 nM	
CCCCCCCC(=O)OC1C(=CC(=O)OC)CC2CC(CO)OC(=O)CC(O)CCOC(C(C)(C)C)CC3CCOC(C=CC(C)(C)C1(O)O2)O3 (stereo not drawn) [bryolog 3]	6.5 nM	
CC1=CC[C@H](C)C(C)(C)[C@@H]1/C=C/C(C)=C/CC[C@@]1(CO)[C@H](CCCO)/C(=C(/C)C=O)CC[C@]1(C)O [Iripallidal]		GI50 (concentration required to inhibit growth by 50%) (NCI 60 cell line screen): micromolar to nanomolar range
CCCCCCCC(=O)O[C@H]1/C(=C/C(=O)OC)C[C@H]2C[C@H](CO)OC(=O)C[C@H](O)C[C@@H]3CCC[C@H](C[C@@H]4CCO[C@H](/C=C/C(C)(C)[C@]1(O)O2)O4)O3 [Analog 1]		PKC Affin (PKC): 0.25 nM; affinity for PKC (in words) (PKC): highest affinity for PKC
